In patent EP1550446A1, “Use of 1-(5-isoquinolinesulfonyl) homopiperazine for treating and preventing hypopigmentary disorders” (priority 2003, dated 2005):

Assays:
[1] = tested on: human melanoma cell line (Mel-Ho); assay: Melanocyte dendrite outgrowth assay; format: cell-based; conditions: Mel-Ho cells; for dendrite formation (dendricity): 100 µM, treated for 24 hours, digital photography (Figure 1)
From the text: A possibility to test the effect of a compound on melanocyte function as a measure for pigmentation, the melanocyte dendrite outgrowth assay can be performed. Vitiligo melanocytes for example have only stubby dendrites. Increasing dendricity as a prerequisite for the transfer of the melanosomes from melanocytes to the surrounding keratinocytes rescues this defect. For this assay, cells from a human melanoma cell line (Mel-Ho) were obtained from DSMZ (Deutsche Sammlung für Mikroorganismen und Zellkulturen) and were cultured according to the protocol provided by DSMZ. In short, after thawing the melanocytes were cultured in T-75 flasks in melanocyte culture media (provided by the manufacturer) until they reach 70-80% confluency. The melanocytes were then trypsinized, transferred into 5-10 new T-75 flasks, and grown again to same confluency as described above. After this expansion step the melanocytes were immediately used for the Melanocyte Dendrite Outgrowth Assay or were frozen for later use. […] Forskolin is known to cause increased melanocyte dendricity and was used as a positive control. […] Melanocyte dendrite outgrowth was documented by digital photography (Canon G2 Powershot) after 3, 6 and 24 hours.

[2] = tested on: normal human epidermal keratinocytes (neonatal keratinocytes, NHEK)
Protocol: To test a possible cytotoxic effect resulting in a morphological change of keratinocytes, normal human epidermal keratinocytes were obtained from Clonetics (neonatal keratinocytes, NHEK) and were cultured according to the manufacturers' protocol. In short, after thawing, the keratinocytes were cultured in T-75 flasks in keratinocyte culture media (provided by the manufacturer) until they reached 70-80% confluency. The keratinocytes were then trypsinized, transferred into new T-75 flasks at a density of 3500 cells/cm^2. After this expansion step the keratinocytes were immediately used for the cytotoxic assay procedure or were frozen for later use. […] Cells treated with media only were used as a negative control. Photos were taken at 3, 6 and 24 hours after stimulation for documentary reasons.

Compound	dendrite formation (dendricity) [1]	dendrite formation ([1]; concentrations lower than 100 µM)	morphological changes as a measure for cytotoxicity [2]	morphological changes as a measure for cytotoxicity (HaCaT keratinocytes)
Cl.Cl.O=S(=O)(c1cccc2cnccc12)N1CCCNCC1 [1-(5-isoquinolinesulfonyl)homopiperazine dihydrochloride]	dendricity was strongly stimulated	sufficient to induce dendrite formation	No morphological changes	No morphological changes
O=S(=O)(c1cccc2cnccc12)N1CCCNCC1 [1-(5-isoquinolinesulfonyl)homopiperazine]	strong dendrite formation		normal morphology	normal morphology
